The subject of one experiment is basal cell carcinoma. As to the kind of experiment: Basal cell carcinoma in K14-CreER; Ptch1fl/fl; p53fl/fl mice treated with GDC-0449. In kind it is in vivo. On the procedure:
Harvested skin from treated animals was processed for Hematoxylin and Eosin (H&E) staining using established protocols. Alternatively, backskin from treated animals was fixed over night in 4% paraformaldehyde/PBS solution, washed, incubated in 30% sucrose/PBS solution overnight, and embedded in frozen OCT. Sections were then cut at 8 um from the frozen blocks and stained for the apoptosis marker cleaved caspase 3 (1:1000), GFP (1:1000), or Keratin 5 (1:1000). Sections were counterstained with DAPI.

Experiment [1] has as its system Superficial Basal Cell Carcinoma (BCC). As to the kind of experiment: DT cell ablation in Superficial Basal Cell Carcinoma (BCC), K14CreER/+; p53loxP/loxP; PtchloxP/loxP; LGR5DTReGFP/+ mice; H&E and immunofluorescent staining. It counts as in vivo. To be noted: 75 mg/kg GDC-0449 po BID for 38 days with Diphtheria Toxin 50 ug/kg every other day for the final 8 days, Lgr5DTR.EGFP mice (FIG. 4 A-B). The method, then: K14^CreER/+; p53^loxP/loxP; Ptch^loxP/loxP; LGR5^DTReGFP/+ mice were generated by breeding p53^loxP/loxPPtch^loxP/loxP; LGR5^DTReGFP/+ mice with p53^loxP/loxP; Ptch^loxP/+; K14^CreER/−. Animals showing telltale signs of Superficial BCC disease such as loss of fur, scruffy coat, thickening of the ears or tail skin were put on study. Animals were typically placed on study at 7 weeks of age. K14^CreER/+; p53^loxP/loxP; Ptch^loxP/loxP; LGR5^DTReGFP/+ mice were treated with the regimes as follows. To test the effects of DT treatments on residual superficial BCC, mice were treated Vismodegib (GDC-0449) po bid at 75 mg/kg for 38 days with concomitant with Diphtheria Toxin (DT) at 50 ug/kg every other day for the final 8 days starting at […]. Control mice were treated with Vismodegib (GDC-0449) po bid at 75 mg/kg for 38 days concomitant with 200 uL IP saline for the final 8 days of treatment. In addition, animals showing signs of disease (listed above) were treated with saline or DT alone at 50 ug/kg every other day for 5 days to test the effect of single DT treatments.
Harvested skin from treated animals was processed for Hematoxylin and Eosin (H&E) staining using established protocols. Alternatively, backskin from treated animals was fixed over night in 4% paraformaldehyde/PBS solution, washed, incubated in 30% sucrose/PBS solution overnight, and embedded in frozen OCT. […]

As for `CS(=O)(=O)c1ccc(C(=O)Nc2ccc(Cl)c(-c3ccccn3)c2)c(Cl)c1` [GDC-0449, 2-chloro-N-[4-chloro-3-(pyridin-2-yl)phenyl]-4-(methylsulfonyl)benzamide], the tumor regression entry in the experiment with basal cell carcinoma (K14-CreER, Ptch1fl/fl, p53fl/fl mice, compared to untreated control mice (FIG. 2)) is reported as “extensive tumor regression”; in experiment [1], “tumor regression”. The residual disease result with basal cell carcinoma (after 75 mg/kg GDC-0449 po BID for 56 days (FIG. 2 C-D)) was “still observed”.

The record behind these values is patent US10246515B2, “Methods of treating hedgehog-related diseases with an anti-LGR5 antibody” (Genentech, Inc., priority 2013, dated 2019).
